Data published in patent publication US11053234B2 (GlaxoSmithKline Intellectual Property Development Limited, priority 2016, dated 2021).

Target: T1, haematopoietic prostaglandin D synthase (H-PGDS) (Homo sapiens, UniProt O60760)
T1 construct: Full length human H-PGDS cDNA (Invitrogen Ultimate ORF 10H13026) was amplified by PCR; 6-His (N); TEV protease cleavage site (N); made in house; host or cells: E. coli BL21 (DE3*), vector pET22b+
Assay: H-PGDS RapidFire high throughput mass spectrometry assay (conversion of PGH2 to PGD2)
Assay type: biochemical
Settings: 10 nM H-PGDS, PGH2 formed in situ by COX-2 from arachidonic acid; read-out: Potency Range (mean pIC50) (converted)
In short: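 PGH2 substrate generated in situ by COX-2 (full-length human, FLAG-tagged, Sf9-expressed) from arachidonic acid at ˜10 μM, then converted by full-length human His-tagged H-PGDS (E. coli-expressed). RapidFire SPE–triple quadrupole MS measured PGD2 against PGF2α as substrate surrogate to give percent conversion.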

T1 sequence (O60760 whole entry): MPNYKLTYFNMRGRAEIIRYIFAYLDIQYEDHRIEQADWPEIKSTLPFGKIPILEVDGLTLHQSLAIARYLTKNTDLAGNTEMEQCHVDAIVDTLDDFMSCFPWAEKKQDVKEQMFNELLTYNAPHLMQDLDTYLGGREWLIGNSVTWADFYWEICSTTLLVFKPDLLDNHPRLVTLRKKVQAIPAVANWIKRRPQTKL

| SMILES | IC50 |
| --- | --- |
| Cn1nccc1NC(=O)[C@H]1C[C@H](Oc2cccc3scnc23)C1 [Example 249, (trans)-3-(Benzo[d]thiazol-4-yloxy)-N-(1-methyl-1H-pyrazol-5-yl)cyclobutanecarboxamide] | 100 to 1000 nM |
| CCOC(=O)c1coc(NC(=O)[C@H]2C[C@H](Oc3cccc4cccnc34)C2)n1 [Example 171, ethyl 2-((trans)-3-(quinolin-8-yloxy)cyclobutanecarboxamido)oxazole-4-carboxylate] | 10 to 79.4 nM |
| O=C(Nc1nc(C2CC2)co1)[C@H]1C[C@H](Oc2cccc3cccnc23)C1 [Example 178, (trans)-N-(4-Cyclopropyloxazol-2-yl)-3-(quinolin-8-yloxy)cyclobutanecarboxamide] | 10 to 79.4 nM |
| CC(C)(O)[C@H]1CC[C@H](NC(=O)N2CC(Oc3cc(C(N)=O)cc4scnc34)C2)CC1 [Example 330, 4-((1-(((trans)-4-(2-Hydroxypropan-2-yl)cyclohexyl)carbamoyl)azetidin-3-yl)oxy)benzo[d]thiazole-6-carboxamide] | 10 to 79.4 nM |
| O=C(NC1CN(c2ncc(F)cn2)C1)N1CC(Oc2cc(F)cc3scnc23)C1 [Example 135, 3-((6-Fluorobenzo[d]thiazol-4-yl)oxy)-N-(1-(5-fluoropyrimidin-2-yl)azetidin-3-yl)azetidine-1-carboxamide] | 10 to 79.4 nM |
| CC(C)(O)[C@H]1CC[C@H](NC(=O)[C@H]2C[C@H](Oc3cc(Cl)ccc3OC(F)F)C2)CC1 [Example 273, (trans)-3-(5-Chloro-2-(difluoromethoxy)phenoxy)-N-((trans)-4-(2-hydroxypropan-2-yl)cyclohexyl)cyclobutanecarboxamide] | 10 to 79.4 nM |
| CC(C)(O)[C@H]1CC[C@H](NC(=O)[C@H]2C[C@H](Oc3cccc4c3OCC4)C2)CC1 [Example 268, (trans)-3-((2,3-Dihydrobenzofuran-7-yl)oxy)-N-((trans)-4-(2-hydroxypropan-2-yl)cyclohexyl)cyclobutanecarboxamide] | 10 to 79.4 nM |
| O=C(NCc1cccs1)[C@H]1C[C@H](Oc2cccc3scnc23)C1 [Example 250] | 100 to 1000 nM |
| CC(N[C@H]1CC[C@H](NC(=O)[C@H]2C[C@H](Oc3cccc4scnc34)C2)CC1)C(F)F (mixture of isomers) [Example 46, Racemic (trans)-3-(Benzo[d]thiazol-4-yloxy)-N-((trans)-4-((1,1-difluoropropan-2-yl)amino)cyclohexyl)cyclobutanecarboxamide] | 10 to 79.4 nM |
| Cc1nnc(NC(=O)[C@H]2C[C@H](Oc3cccc4scnc34)C2)s1 [Example 331, (trans)-3-(Benzo[d]thiazol-4-yloxy)-N-(5-methyl-1,3,4-thiadiazol-2-yl)cyclobutane-1-carboxamide] | 10 to 79.4 nM |
| CC(C)(O)CO[C@H]1CC[C@H](NC(=O)[C@H]2C[C@H](Oc3cc(F)ccc3OC(F)F)C2)CC1 [Example 33, (trans)-3-(2-(Difluoromethoxy)-5-fluorophenoxy)-N-((trans)-4-(2-hydroxy-2-methylpropoxy)cyclohexyl)cyclobutanecarboxamide] | 10 to 79.4 nM |
| O=C(NC1CCN(CC(F)(F)F)CC1)[C@H]1C[C@H](Oc2cccc3cccnc23)C1 [Example 224, (trans)-3-(Quinolin-8-yloxy)-N-(1-(2,2,2-trifluoroethyl)piperidin-4-yl)cyclobutanecarboxamide] | 10 to 79.4 nM |
| O=C(Nc1ccc(N2CCOCC2)cc1)[C@H]1C[C@H](Oc2cccc3scnc23)C1 [Example 243, (trans)-3-(Benzo[d]thiazol-4-yloxy)-N-(4-morpholinophenyl)cyclobutanecarboxamide] | 10 to 79.4 nM |
| CC(C)(O)[C@H]1CC[C@H](NC(=O)[C@H]2C[C@H](Oc3cccc4cc(F)cnc34)C2)CC1 [Example 280, (trans)-3-((3-Fluoroquinolin-8-yl)oxy)-N-((trans)-4-(2-hydroxypropan-2-yl)cyclohexyl)cyclobutanecarboxamide] | 100 to 1000 nM |
| CC(C)(O)[C@H]1CC[C@H](NC(=O)[C@H]2C[C@H](Oc3ccc(F)c4cccnc34)C2)CC1 [Example 292, (trans)-3-((5-Fluoroquinolin-8-yl)oxy)-N-((trans)-4-(2-hydroxypropan-2-yl)cyclohexyl)cyclobutanecarboxamide] | 100 to 1000 nM |
| CC(C)(O)[C@H]1CC[C@H](NC(=O)[C@H]2C[C@H](Nc3cccc4cccnc34)C2)CC1 [Example 222, (trans)-N-((trans)-4-(2-Hydroxypropan-2-yl)cyclohexyl)-3-(quinolin-8-ylamino)cyclobutanecarboxamide] | 100 to 1000 nM |
| CC(N[C@H]1CC[C@H](NC(=O)N2CC(Oc3cc(F)cc4scnc34)C2)CC1)C(F)F (mixture of isomers) [Example 142, Racemic N-((trans)-4-((1,1-Difluoropropan-2-yl)amino)cyclohexyl)-3-((6-fluorobenzo[d]thiazol-4-yl)oxy)azetidine-1-carboxamide] | 10 to 79.4 nM |

| SMILES | IC50 |
| --- | --- |
| O=C(N[C@H]1CC[C@H](NC(CO)C(F)(F)F)CC1)[C@H]1C[C@H](Oc2cc(F)cc3scnc23)C1 (mixture of isomers) [Example 126, Racemic (trans)-3-((6-Fluorobenzo[d]thiazol-4-yl)oxy)-N-((trans)-4-((1,1,1-trifluoro-3-hydroxypropan-2-yl)amino)cyclohexyl)cyclobutanecarboxamide] | 10 to 79.4 nM |
| O=C(NC1CCc2ccccc21)[C@H]1C[C@H](Oc2cccc3cccnc23)C1 (mixture of isomers) [Example 212, Racemic (trans)-N-(2,3-Dihydro-1H-inden-1-yl)-3-(quinolin-8-yloxy)cyclobutanecarboxamide] | 10 to 79.4 nM |
| CCOC(=O)Cc1nnc(NC(=O)[C@H]2C[C@H](Oc3cccc4ccoc34)C2)s1 [Example 263, Ethyl 2-(5-((trans)-3-(benzofuran-7-yloxy)cyclobutanecarboxamido)-1,3,4-thiadiazol-2-yl)acetate] | 10 to 79.4 nM |
| Cc1cnc(N2CC(NC(=O)[C@H]3C[C@H](Oc4cc(F)cc5scnc45)C3)C2)nc1 [Example 112, (trans)-3-((6-Fluorobenzo[d]thiazol-4-yl)oxy)-N-(1-(5-methylpyrimidin-2-yl)azetidin-3-yl)cyclobutanecarboxamide] | 10 to 79.4 nM |
| CC(O)(c1csc(NC(=O)[C@H]2C[C@H](Oc3cccc4cccnc34)C2)n1)C(F)(F)F (mixture of isomers) [Example 187, Racemic (trans)-3-(Quinolin-8-yloxy)-N-(4-(1,1,1-trifluoro-2-hydroxypropan-2-yl)thiazol-2-yl)cyclobutanecarboxamide] | 10 to 79.4 nM |
| Cc1ccc(N2CC(NC(=O)N3CC(Oc4cc(F)cc5scnc45)C3)C2)nc1 [Example 232, 3-((6-Fluorobenzo[d]thiazol-4-yl)oxy)-N-(1-(5-methylpyridin-2-yl)azetidin-3-yl)azetidine-1-carboxamide] | 10 to 79.4 nM |
| NC(=O)c1cnc(NC(=O)[C@H]2C[C@H](Oc3cccc4cccnc34)C2)s1 [Example 191, 2-((trans)-3-(Quinolin-8-yloxy)cyclobutanecarboxamido)thiazole-5-carboxamide] | 10 to 79.4 nM |
| CC(C)(C)OC(=O)N[C@H]1C[C@H](NC(=O)[C@H]2C[C@H](Oc3cccc4scnc34)C2)C1 [Example 66, tert-butyl ((trans)-3-((trans)-3-(benzo[d]thiazol-4-yloxy)cyclobutanecarboxamido)cyclobutyl)carbamate] | 100 to 1000 nM |
| C[C@]1(O)CC[C@H](NC(=O)[C@H]2C[C@H](Oc3cccc4cccnc34)C2)CC1 [Example 182, (trans)-N-((trans)-4-Hydroxy-4-methylcyclohexyl)-3-(quinolin-8-yloxy)cyclobutanecarboxamide] | 100 to 1000 nM |
| CS(=O)(=O)c1ccc(NC(=O)N2CC(Oc3cccc4scnc34)C2)nc1 [Example 311, 3-(Benzo[d]thiazol-4-yloxy)-N-(5-(methylsulfonyl)pyridin-2-yl)azetidine-1-carboxamide] | 10 to 79.4 nM |
| NC(=O)c1ccc(N2CC(NC(=O)[C@H]3C[C@H](Oc4cc(F)cc5scnc45)C3)C2)nc1 [Example 110, 6-(3-((trans)-3-(6-Fluorobenzo[d]thiazol-4-yloxy)cyclobutanecarboxamido)azetidin-1-yl)nicotinamide] | 10 to 79.4 nM |
| CC(C(F)F)N1CCC(NC(=O)[C@H]2C[C@H](Oc3cc(F)ccc3OC(F)F)C2)CC1 (mixture of isomers) [Example 21, Racemic (trans)-3-(2-(Difluoromethoxy)-5-fluorophenoxy)-N-(1-(1,1-difluoropropan-2-yl)piperidin-4-yl)cyclobutanecarboxamide] | 10 to 79.4 nM |
| CC(C)(C)c1nnc(NC(=O)[C@H]2C[C@H](Oc3cccc4cccnc34)C2)o1 [Example 179, (trans)-N-(5-(tert-Butyl)-1,3,4-oxadiazol-2-yl)-3-(quinolin-8-yloxy)cyclobutanecarboxamide] | 10 to 79.4 nM |
| CC(C)(O)[C@H]1CC[C@H](NC(=O)[C@H]2C[C@H](Oc3cc(F)cc4scnc34)C2)CC1 [Example 140, (trans)-3-((6-Fluorobenzo[d]thiazol-4-yl)oxy)-N-((trans)-4-(2-hydroxypropan-2-yl)cyclohexyl)cyclobutanecarboxamide] | 10 to 79.4 nM |
| Cc1cc(NC(=O)[C@H]2C[C@H](Oc3cccc4scnc34)C2)ncn1 [Example 307, (trans)-3-(Benzo[d]thiazol-4-yloxy)-N-(6-methylpyrimidin-4-yl)cyclobutanecarboxamide] | 10 to 79.4 nM |
| Cc1nc(NC(=O)[C@H]2C[C@H](Oc3cccc4cccnc34)C2)oc1C [Example 175, (trans)-N-(4,5-Dimethyloxazol-2-yl)-3-(quinolin-8-yloxy)cyclobutanecarboxamide] | 10 to 79.4 nM |
| CC(C)c1nnc(NC(=O)N2CC(Oc3cccc4scnc34)C2)s1 [Example 334, 3-(Benzo[d]thiazol-4-yloxy)-N-(5-isopropyl-1,3,4-thiadiazol-2-yl)azetidine-1-carboxamide] | 10 to 79.4 nM |
